Assay results taken from US7247645B2, “Dihydropyridine derivatives” (Ajinomoto Co., Inc., priority 1999, dated 2007).
Read-outs that look alike come from different tables or passages of the source.

Tests used:
N-type calcium channel [1] = target: T1, N-type calcium channel (Homo sapiens, UniProt Q00975); experiment: Antagonistic activity on N-type calcium channel (fluorescence dye method), IMR-32 cells, in presence of 1 μM Nifedipine; type: cell-based; conditions: 60 mM KCl stimulation, 0.1, 1 or 10 μM test compound, Table 9, read-out: N-type inhibition pIC50 (converted)
T1 sequence (Q00975 whole entry): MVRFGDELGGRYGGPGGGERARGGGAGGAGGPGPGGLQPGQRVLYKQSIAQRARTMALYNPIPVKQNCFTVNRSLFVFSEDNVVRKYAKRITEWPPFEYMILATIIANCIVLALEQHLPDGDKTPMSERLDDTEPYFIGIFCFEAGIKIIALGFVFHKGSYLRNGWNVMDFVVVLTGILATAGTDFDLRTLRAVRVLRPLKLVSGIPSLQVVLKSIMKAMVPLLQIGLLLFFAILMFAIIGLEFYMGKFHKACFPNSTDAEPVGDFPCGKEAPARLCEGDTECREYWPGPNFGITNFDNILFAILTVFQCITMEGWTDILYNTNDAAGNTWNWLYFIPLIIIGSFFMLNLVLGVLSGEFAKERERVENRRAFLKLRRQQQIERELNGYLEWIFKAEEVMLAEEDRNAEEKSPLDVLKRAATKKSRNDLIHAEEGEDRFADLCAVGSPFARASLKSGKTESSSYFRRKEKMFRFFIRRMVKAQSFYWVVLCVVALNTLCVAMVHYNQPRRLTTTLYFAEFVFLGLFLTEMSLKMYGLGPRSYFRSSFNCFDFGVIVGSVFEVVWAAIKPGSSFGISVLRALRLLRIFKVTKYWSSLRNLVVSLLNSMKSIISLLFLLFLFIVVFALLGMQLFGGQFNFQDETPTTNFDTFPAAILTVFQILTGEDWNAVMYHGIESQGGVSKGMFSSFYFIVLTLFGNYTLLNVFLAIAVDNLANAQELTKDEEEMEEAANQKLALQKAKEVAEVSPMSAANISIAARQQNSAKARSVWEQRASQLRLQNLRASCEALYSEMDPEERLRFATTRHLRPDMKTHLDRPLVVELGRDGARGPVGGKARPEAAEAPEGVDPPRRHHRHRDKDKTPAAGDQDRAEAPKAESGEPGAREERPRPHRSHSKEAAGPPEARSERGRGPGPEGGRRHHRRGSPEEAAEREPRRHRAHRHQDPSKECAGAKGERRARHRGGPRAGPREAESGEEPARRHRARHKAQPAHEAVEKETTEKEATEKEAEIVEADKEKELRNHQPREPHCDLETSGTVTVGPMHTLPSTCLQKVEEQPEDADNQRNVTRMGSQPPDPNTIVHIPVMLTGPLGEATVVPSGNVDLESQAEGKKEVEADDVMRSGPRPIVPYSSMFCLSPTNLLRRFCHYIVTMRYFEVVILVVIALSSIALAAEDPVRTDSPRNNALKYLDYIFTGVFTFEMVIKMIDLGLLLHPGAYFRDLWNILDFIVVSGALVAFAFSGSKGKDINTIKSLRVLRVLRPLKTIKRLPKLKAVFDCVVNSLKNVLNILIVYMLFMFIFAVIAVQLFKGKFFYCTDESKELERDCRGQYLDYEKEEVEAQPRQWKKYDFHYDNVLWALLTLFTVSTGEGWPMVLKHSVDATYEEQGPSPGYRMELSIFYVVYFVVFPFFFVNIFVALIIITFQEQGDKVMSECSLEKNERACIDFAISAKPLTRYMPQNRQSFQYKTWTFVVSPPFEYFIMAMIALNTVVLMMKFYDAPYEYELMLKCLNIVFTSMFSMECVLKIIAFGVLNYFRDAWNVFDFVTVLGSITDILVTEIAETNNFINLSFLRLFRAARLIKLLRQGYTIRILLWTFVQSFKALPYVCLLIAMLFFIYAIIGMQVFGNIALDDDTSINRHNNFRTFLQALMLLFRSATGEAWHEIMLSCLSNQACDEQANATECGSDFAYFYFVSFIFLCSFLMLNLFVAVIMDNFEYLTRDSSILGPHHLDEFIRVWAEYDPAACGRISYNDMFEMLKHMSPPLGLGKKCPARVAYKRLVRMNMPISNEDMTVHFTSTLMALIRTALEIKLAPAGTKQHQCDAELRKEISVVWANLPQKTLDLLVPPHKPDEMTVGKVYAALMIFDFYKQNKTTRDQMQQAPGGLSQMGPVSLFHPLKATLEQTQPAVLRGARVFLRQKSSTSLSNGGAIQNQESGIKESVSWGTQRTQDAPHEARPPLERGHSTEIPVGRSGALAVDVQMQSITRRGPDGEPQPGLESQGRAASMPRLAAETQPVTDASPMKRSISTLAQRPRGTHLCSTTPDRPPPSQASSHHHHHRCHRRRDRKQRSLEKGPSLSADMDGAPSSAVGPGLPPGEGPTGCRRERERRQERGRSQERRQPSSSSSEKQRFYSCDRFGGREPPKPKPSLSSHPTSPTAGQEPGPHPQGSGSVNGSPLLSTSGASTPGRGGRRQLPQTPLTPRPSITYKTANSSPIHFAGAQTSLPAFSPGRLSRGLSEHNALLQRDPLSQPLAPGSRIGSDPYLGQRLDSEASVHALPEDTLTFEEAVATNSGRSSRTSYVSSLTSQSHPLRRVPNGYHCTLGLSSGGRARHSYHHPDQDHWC
T1 sequence (P54289 25-1103 partner): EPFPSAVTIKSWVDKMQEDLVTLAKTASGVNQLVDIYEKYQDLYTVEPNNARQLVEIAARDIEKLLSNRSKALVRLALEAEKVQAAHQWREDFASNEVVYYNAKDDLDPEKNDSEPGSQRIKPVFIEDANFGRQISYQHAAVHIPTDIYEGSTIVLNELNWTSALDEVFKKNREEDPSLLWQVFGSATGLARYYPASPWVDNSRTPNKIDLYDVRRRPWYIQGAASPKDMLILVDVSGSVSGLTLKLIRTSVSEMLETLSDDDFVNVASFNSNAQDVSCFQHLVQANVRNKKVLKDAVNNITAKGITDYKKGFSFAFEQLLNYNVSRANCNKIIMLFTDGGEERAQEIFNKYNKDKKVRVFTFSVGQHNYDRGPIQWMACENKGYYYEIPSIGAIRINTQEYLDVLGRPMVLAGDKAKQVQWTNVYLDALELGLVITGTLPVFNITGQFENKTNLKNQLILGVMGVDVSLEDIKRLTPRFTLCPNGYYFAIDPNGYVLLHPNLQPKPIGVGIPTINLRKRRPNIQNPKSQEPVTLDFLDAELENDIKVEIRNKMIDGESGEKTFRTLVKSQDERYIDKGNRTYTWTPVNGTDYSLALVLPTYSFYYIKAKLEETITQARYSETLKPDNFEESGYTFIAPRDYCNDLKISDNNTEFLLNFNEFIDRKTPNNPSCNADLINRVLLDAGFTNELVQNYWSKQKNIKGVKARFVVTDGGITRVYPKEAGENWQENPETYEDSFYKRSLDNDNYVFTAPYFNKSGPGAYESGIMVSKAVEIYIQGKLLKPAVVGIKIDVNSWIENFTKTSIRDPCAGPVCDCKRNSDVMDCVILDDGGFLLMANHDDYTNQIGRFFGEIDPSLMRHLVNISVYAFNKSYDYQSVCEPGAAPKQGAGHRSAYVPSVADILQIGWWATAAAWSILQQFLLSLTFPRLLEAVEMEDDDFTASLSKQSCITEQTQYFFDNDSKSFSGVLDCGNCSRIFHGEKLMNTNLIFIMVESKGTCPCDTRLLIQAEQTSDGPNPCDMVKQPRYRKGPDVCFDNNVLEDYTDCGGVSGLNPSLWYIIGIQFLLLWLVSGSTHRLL
T1 sequence (P54284 whole entry partner): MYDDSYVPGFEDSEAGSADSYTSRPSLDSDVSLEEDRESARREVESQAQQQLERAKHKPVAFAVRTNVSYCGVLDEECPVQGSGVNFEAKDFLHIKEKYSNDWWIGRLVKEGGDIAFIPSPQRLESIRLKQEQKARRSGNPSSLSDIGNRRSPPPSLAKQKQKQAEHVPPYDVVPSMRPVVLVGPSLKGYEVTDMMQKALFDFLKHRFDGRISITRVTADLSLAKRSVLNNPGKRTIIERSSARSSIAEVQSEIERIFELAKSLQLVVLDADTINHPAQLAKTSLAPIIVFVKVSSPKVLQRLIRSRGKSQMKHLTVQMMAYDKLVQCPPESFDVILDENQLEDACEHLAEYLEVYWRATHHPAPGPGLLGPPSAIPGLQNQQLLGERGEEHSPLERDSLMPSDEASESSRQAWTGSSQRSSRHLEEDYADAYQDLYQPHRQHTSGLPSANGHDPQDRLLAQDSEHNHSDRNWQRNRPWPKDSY
Procedure: (§1) The medium used was a Phenol Red-free Eagle minimum essential medium (GIBCO) containing earle's salts supplement, 2 mM of L-glutamine (GIBCO), 1 mM of sodium pyruvate (pH 6.5) (GIBCO), antibiotic/antimicotic mixture (GIBCO) and 10% fetal calf serum (Cell Culture Technologies). 3 ml of 1×10^5/ml IMR-32 cells were spread on a glass dish (Iwaki Glass Co., Ltd.) having a diameter of 35 mm which was treated with poly-D-lysin (SIGMA) and collagen (COLLAGEN VITROGEN 100, Collagen Co.). After the culture for 2 days, 1 mM (final concentration) of dibutyl cAMP and 2.5 μM of bromodeoxyuridine (SIGMA) were added. After the culture for additional 10 to 14 days, the cells were subjected to the activity determination. The medium for IMR-32 cells thus prepared was replaced with 1 ml of Phenol Red-free Eagle minimum essential medium (GIBCO) containing […] 10 μM fura-2/AM (Dojin Kagaku, Co.) and earle's salts supplement, and the incubation was conducted at 25° C. for 1 hour.
(§2) Then the medium was replaced with Phenol Red-free Eagle minimum essential medium (GIBCO) containing earle's salts supplement, from which fura-2/AM had been removed. After the incubation at 37° C. for 1 hour, the medium was replaced with a recording medium (20 mM of HEPES-KOH, 115 mM of NaCl, 5.4 mM of KCl, 0.8 mM of MgCl2, 1.8 mM of CaCl2 and 13.8 mM of D-glucose). Antagonistic activity on N-type calcium channel was determined and analyzed by using a fluorescence microscope (Nikon Corporation) and an image analysis device ARGUS 50 (Hamamatsu Photonics). In particular, a recording medium (20 mM of HEPES-KOH, 115 mM of NaCl, 5.4 mM of KCl, 0.8 mM of MgCl2, 1.8 mM of CaCl2 and 13.8 mM of D-glucose) containing 1 μM of Nifedipine was given to the cells by reflux by a Y-tube method. Then a stimulating agent containing 60 mM of potassium chloride was rapidly given by the Y-tube method. Thereafter stimulating agents containing 60 mM of potassium chloride and 0.1, 1 or 10 μM of test compound were successively rapidly given by the Y-tube method to determine the antagonistic activity on the channel. Finally, a stimulating agent containing 60 mM of potassium chloride and 1 μM of omega conotoxin GVIA (Peptide institute, inc.) was rapidly given by the Y-tube method to realize a condition of 100% inhibition of N-type calcium channel.

N-type calcium channel [2] = target: T1, N-type calcium channel; experiment: N-type calcium channel antagonistic activity, changed procedure (calcium concentration change in IMR-32 cells, calculated from inhibition rates); type: cell-based; conditions: 60 mM KCl stimulation, Table 10, read-out: N-type inhibition pIC50 (converted)
Procedure: as §1, §2
The same procedure as that of the above-described tests was repeated except for the following changes: 60 mM of potassium chloride-containing stimulating agent was rapidly given by the Y-tube method while the calcium concentration change in the cells was examined in terms of N-type calcium channel activity. Then Stimulating agents containing 60 mM of potassium chloride and 0.1, 1 or 10 μM of test compound were successively and rapidly given by the Y-tube method. A change in calcium concentration in the cells was determined.

L-type calcium channel = target: T2, L-type calcium channel (Rattus norvegicus, UniProt P22002); experiment: Antagonistic activity on L-type calcium channel: relaxation of KCl contraction of rat thoracic aorta samples; conditions: High K+ (50 mM KCl) contraction
T2 construct: The slips of thoracic aorta extracted from a Sprague-Dawry rat was used; from tissue; host or cells: rat (Sprague-Dawley) thoracic aorta rings, endothelium removed
Procedure: The activity of the dihydropyridine derivatives of the present invention to inhibit L-type calcium channel was determined by the following method in which the relaxation reaction on the KCl contraction of samples of thoracic aorta extracted from rats was employed.
1) Method of preparation of samples of thoracic aorta extracted from rats:
The slips of thoracic aorta extracted from a Sprague-Dawry rat was used. The blood vessels were cut to obtain ring-shaped samples having a width of about 3 mm. The endothelial cells of the blood vessel were mechanically removed. The samples were suspended in a strain gage in Tyrode's solution (158.3 mM of NaCl, 4.0 mM of KCl, 1.05 mM of MgCl2, 0.42 mM of NaH2PO4, 10 mM of NaHCO3, 2 mM of CaCl2 and 5 mM of glucose) in which a gaseous mixture of O2 (95%) and CO2 (5%) was introduced. A static tension of 2 g was applied hereto. The tension of the blood vessel was amplified with transducer and a tension amplifier (EF-601G; Nihon Koden Corporation) and recorded with a multi-pen recorder (Rikadenki Kogyo Co., Ltd.). The experiments were conducted at 37° C.
2) Determination of Relaxation After KCl Contraction:
After the tension had been stabilized, the nutrient solution in the sample tank was replaced with High K^+ Tyrode's solution (112.3 mM of NaCl, 50 mM of KCl, 1.05 mM of MgCl2, 0.42 mM of NaH2PO4, 10 mM of NaHCO3, 2 mM of CaCl2 and 5 mM of glucose) to conduct the contraction reaction. 30 minutes after, the solution in the sample tank was replaced with the normal Tyrode's solution. The solution in the sample tank was again replaced with the High K^+ Tyrode's solution and the contraction reaction was observed. After attaining the maximum contraction reaction, the test compound was cumulatively added at intervals of […] to attain concentrations of 10^−7, 10^−6 and 10^−5M. The rate of the test compound to control the maximum contraction reaction was employed as the index of the inhibition activity on L-type calcium channel.

[3] = Table 9, read-out: L-type inhibition IC50
[4] = Table 10, read-out: L-type inhibition IC50

| Compound | IC50 (N-type calcium channel [1]) [nM] | IC50 (N-type calcium channel [2]) [nM] | IC50 (L-type calcium channel; [3]) [nM] | IC50 (L-type calcium channel; [4]) [nM] |
| --- | --- | --- | --- | --- |
| CC1=C(C(=O)O)C(c2cccc(Cl)c2)C(C(=O)OCCC(c2ccccc2)c2ccccc2)=C(COCCN2CCCCC2)N1 (stereo not shown) [Example 12, 5-(3,3-diphenylpropane-1-yl)4-(3-chlorophenyl)-2-methyl-6-(2-piperidine-1-yl-ethoxymethyl)-1,4-dihydropyridine-3,5-dicarboxylate] | 1580 | 3980 | 2690 | – |
| CC1=C(C(=O)OCCC(c2ccccc2)c2ccccc2)C(c2cccc(Cl)c2)C(C(=O)O)=C(COCCN2CCCCC2)N1 (stereo not shown) [Example 23, 3-(3,3-diphenylpropane-1-yl)4-(3-chlorophenyl)-2-methyl-6-(2-(piperidine-1-yl)ethoxymethyl)-1,4-dihydropyridine-3,5-dicarboxylate] | 1200 | 1580 | 1800 | 1820 |
| CC1=C(C(=O)O)C(c2cccc(Cl)c2)C(C(=O)OCCC(c2ccccc2)c2ccccc2)=C(COCCc2cccnc2)N1 (stereo not shown) [Example 33, 5-(3,3-diphenyl-1-propyl)4-(3-chlorophenyl)-2-methyl-6-(2-(3-pyridine)ethoxy)methyl-1,4-dihydropyridine-3,5-dicarboxylate] | – | 1580 | – | 1700 |
| CC1=C(C(=O)O)C(c2cccc(Cl)c2)C(C(=O)OCCC(c2ccccc2)c2ccccc2)=C(COCCc2ccncc2)N1 (stereo not shown) [Example 54, 5-(3,3-diphenylpropyl)4-(3-chlorophenyl)-2-methyl-6-(2-[pyridine-4-yl]ethoxymethyl)-1,4-dihydropyridine-3,5-dicarboxylate] | – | 2000 | – | 1580 |
| COCC1=C(C(=O)OCCC(c2ccccc2)c2ccccc2)C(c2cccc(Cl)c2)C(C(=O)O)=C(C)N1 (stereo not shown) [Example 14, 3-(3,3-diphenylpropane-1-yl)4-(3-chlorophenyl)-2-methoxymethyl-6-methyl-1,4-dihydropyridine-3,5-dicarboxylate] | 1200 | 2000 | 4280 | 4270 |
| CC1=C(C(=O)OCCC(c2ccccc2)c2ccccc2)C(c2cccc(Cl)c2)C(C(=O)N2CCN(C(=O)OC(C)(C)C)CC2)=C(C)N1 (stereo not shown) [Example 15, t-butyl 4-(4-(3-chlorophenyl)-5-(3,3-diphenylpropoxycarbonyl)-2,6-dimethyl-1,4-dihydropyridine-3-carbonyl)piperazine-1-carboxylate] | 372 | – | 20800 | – |
| CC1=C(C(=O)O)C(c2cccc(Cl)c2)C(C(=O)OCCC(c2ccccc2)c2ccccc2)=C(COCCO)N1 (stereo not shown) [Example 20, 3-(3,3-diphenylpropane-1-yl)4-(3-chlorophenyl)-2-(2-hydroxyethoxymethyl)-6-methyl-1,4-dihydropyridine-3,5-dicarboxylate] | 1780 | 3160 | 2780 | 2880 |
| CC1=C(C(=O)O)C(c2cccc(Cl)c2)C(C(=O)OCCC(c2ccccc2)c2ccccc2)=C(C(F)(F)F)N1 (stereo not shown) [Example 57, 5-(3,3-diphenylpropyl)4-(3-chlorophenyl)-2-methyl-6-trifluoromethyl-1,4-dihydropyridine-3,5-dicarboxylate] | – | 1580 | – | 1780 |
| COC(OC)C1=C(C(=O)OCCC(c2ccccc2)c2ccccc2)C(c2cccc(Cl)c2)C(C(=O)O)=C(C)N1 (stereo not shown) [Example 60, 3-(3,3-diphenylpropyl)4-(3-chlorophenyl)-2-dimethoxymethyl-6-methyl-1,4-dihydropyridine-3,5-dicarboxylate] | – | 1580 | – | 3890 |
